The text below walks through data of ChEMBL document CHEMBL3297661, “1-Substituted-5-[(3,5-dinitrobenzyl)sulfanyl]-1H-tetrazoles and their isosteric analogs: A new class of selective antitubercular agents active against drug-susceptible and multidrug-resistant mycobacteria” (Eur J Med Chem, 2014).

≈ marks a conversion by molar mass, not a printed value.

Series [1] has as its system Mycobacterium kansasii. Briefly: Antimycobacterial activity against Mycobacterium kansasii 6509/96 after 14 days by micromethod. In kind it is functional. As to conditions: 6509/96, 336 h.
The subject of series [2] is Mycobacterium tuberculosis. Briefly: Antimycobacterial activity against Mycobacterium tuberculosis CNCTC My 331/88 after 14 days by micromethod. The class given is functional. The settings on record: CNCTC My 331/88, 336 h.
The test system of series [3] is Mycobacterium kansasii. Briefly: Antimycobacterial activity against Mycobacterium kansasii 6509/96 after 21 days by micromethod. The class given is functional. The settings on record: 6509/96, 504 h.
In series [4] the test system is Mycobacterium tuberculosis. Briefly: Antimycobacterial activity against Mycobacterium tuberculosis CNCTC My 331/88 after 21 days by micromethod. In kind it is functional. As to conditions: CNCTC My 331/88, 504 h.
Series [5] deals with Mycobacterium kansasii. Briefly: Antimycobacterial activity against Mycobacterium kansasii CNCTC My 235/80 after 14 days by micromethod. The class given is functional. As to conditions: CNCTC My 235/80, 336 h.
Series [6] deals with Mycobacterium avium. Briefly: Antimycobacterial activity against Mycobacterium avium CNCTC My 330/88 after 14 days by micromethod. The class given is functional. As to conditions: CNCTC My 330/88, 336 h.
For series [7], the system named is Mycobacterium kansasii. Briefly: Antimycobacterial activity against Mycobacterium kansasii 6509/96 after 7 days by micromethod. In kind it is functional. The settings on record: 6509/96, 168 h.
Series [8] concerns Mycobacterium kansasii. The series can be described thus: Antimycobacterial activity against Mycobacterium kansasii CNCTC My 235/80 after 7 days by micromethod. The class given is functional. As to conditions: CNCTC My 235/80, 168 h.
The test system of series [9] is Mycobacterium avium. The series can be described thus: Antimycobacterial activity against Mycobacterium avium CNCTC My 330/88 after 21 days by micromethod. The class given is functional. The settings on record: CNCTC My 330/88, 504 h.
In series [10] the test system is Mycobacterium kansasii. Briefly: Antimycobacterial activity against Mycobacterium kansasii CNCTC My 235/80 after 21 days by micromethod. The class given is functional. The settings on record: CNCTC My 235/80, 504 h.
A short description of series [11]: Cytotoxicity against human HeLa cells assessed as cell viability at 30 uM after 48 hrs by MTT assay. The class given is cell-based. The settings on record: read-out: Activity. (In general: Tetrazolium assays rely on reduction of a dye to a coloured formazan, in cell work by metabolically active cells.)
Series [12] in a line: Cytotoxicity against human HuH7 cells assessed as reduction in cell viability after 48 hrs by MTT assay. The settings on record: Huh-7, 48 h. The class given is cell-based.
Series [13] can be described thus: Cytotoxicity against MDCK2 cells assessed as cell viability at 30 uM after 48 hrs by MTT assay. The class given is cell-based, Canis lupus familiaris, MDCK-II. As to conditions: dog, read-out: Activity.
The next series has as its system HepG2. The series can be described thus: Cytotoxicity against human HepG2 cells assessed as reduction in cell viability after 48 hrs by MTT assay. In kind it is cell-based. The settings on record: HepG2, 48 h.
Series [14] is described as follows: Cytotoxicity against MDCK2 cells assessed as reduction in cell viability after 48 hrs by MTT assay. In kind it is cell-based. As to conditions: Canis lupus familiaris, MDCK-II.
The next series has as its system HeLa. Briefly: Cytotoxicity against human HeLa cells assessed as reduction in cell viability after 48 hrs by MTT assay. The class given is cell-based.
Series [15] in a line: Cytotoxicity against human HepG2 cells assessed as cell viability at 30 uM after 48 hrs by MTT assay. As to conditions: read-out: Activity. In kind it is cell-based.
A short description of series [16]: Cytotoxicity against human HuH7 cells assessed as cell viability at 30 uM after 48 hrs by MTT assay. The class given is cell-based, Huh-7. The settings on record: read-out: Activity.

In general, MIC refers to the lowest concentration that inhibits growth of the organism. A low value points to a more susceptible organism. As for `O=[N+]([O-])c1cc(COc2nnnn2-c2ccc(Br)cc2)cc([N+](=O)[O-])c1`, the minimal inhibitory concentration (MIC) was determined as 16 µM (≈ 6.74 µg/mL) with Mycobacterium kansasii [1]; 2 µM (≈ 0.842 µg/mL) in series [2]; 16 µM (≈ 6.74 µg/mL) in the series on Mycobacterium kansasii [3]; 4 µM (≈ 1.68 µg/mL) in series [4]; 16 µM (≈ 6.74 µg/mL) in the series with Mycobacterium kansasii [5]; 125 µM (≈ 52.6 µg/mL) in the series on Mycobacterium avium [6]. Moreover, the MIC against Mycobacterium kansasii [7] worked out at 4 µM (≈ 1.68 µg/mL); in the series on Mycobacterium kansasii [8], 8 µM (≈ 3.37 µg/mL); against Mycobacterium avium [9], 125 µM (≈ 52.6 µg/mL); with Mycobacterium kansasii [10], 16 µM (≈ 6.74 µg/mL).

Consider `CCCCCCn1nnnc1SCc1cc([N+](=O)[O-])cc([N+](=O)[O-])c1`, for which the MIC with Mycobacterium kansasii [1] came out at 4 µM (≈ 1.47 µg/mL); in [2], 1 µM (≈ 0.366 µg/mL); with Mycobacterium kansasii [3], 8 µM (≈ 2.93 µg/mL); in series [4], 2 µM (≈ 0.733 µg/mL); against Mycobacterium kansasii [5] it was 4 µM (≈ 1.47 µg/mL); with Mycobacterium avium [6] it was 32 µM (≈ 11.7 µg/mL). Moreover, the MIC against Mycobacterium kansasii [7] amounted to 2 µM (≈ 0.733 µg/mL); against Mycobacterium kansasii [8] it was 2 µM (≈ 0.733 µg/mL); in the series with Mycobacterium avium [9], 62 µM (≈ 22.7 µg/mL); against Mycobacterium kansasii [10], 8 µM (≈ 2.93 µg/mL).

Regarding `CCCCCCCCCCCCCCCCSCc1cc([N+](=O)[O-])cc([N+](=O)[O-])c1`, the MIC in the series on Mycobacterium kansasii [1] was 500 µM (≈ 219 µg/mL); in series [2], 1000 µM (≈ 439 µg/mL); with Mycobacterium kansasii [3], 500 µM (≈ 219 µg/mL); in [4], 1000 µM (≈ 439 µg/mL); in the series with Mycobacterium kansasii [5] it was 500 µM (≈ 219 µg/mL); against Mycobacterium avium [6], 1000 µM (≈ 439 µg/mL). The MIC in the series with Mycobacterium kansasii [7] came to 500 µM (≈ 219 µg/mL); in the series on Mycobacterium kansasii [8], 500 µM (≈ 219 µg/mL); against Mycobacterium avium [9], 1000 µM (≈ 439 µg/mL); in the series with Mycobacterium kansasii [10], 500 µM (≈ 219 µg/mL).

Consider `O=[N+]([O-])c1cc(C[Se]c2nnnn2-c2ccc(Br)cc2)cc([N+](=O)[O-])c1`, for which the MIC against Mycobacterium kansasii [1] was determined as 4 µM (≈ 1.94 µg/mL); in series [2] it was 2 µM (≈ 0.968 µg/mL); with Mycobacterium kansasii [3], 8 µM (≈ 3.87 µg/mL); in [4] it was 2 µM (≈ 0.968 µg/mL); with Mycobacterium kansasii [5] it was 4 µM (≈ 1.94 µg/mL); against Mycobacterium avium [6] it was 125 µM (≈ 60.5 µg/mL). The minimum inhibitory concentration (MIC) was 2 µM (≈ 0.968 µg/mL) with Mycobacterium kansasii [7], 2 µM (≈ 0.968 µg/mL) with Mycobacterium kansasii [8], 125 µM (≈ 60.5 µg/mL) against Mycobacterium avium [9] and 4 µM (≈ 1.94 µg/mL) against Mycobacterium kansasii [10].

What is called IC50 is the midpoint of a concentration-inhibition curve. Regarding `O=[N+]([O-])c1cc(COc2nnnn2-c2ccc(Cl)c(Cl)c2)cc([N+](=O)[O-])c1`, the minimal inhibitory concentration (MIC) against Mycobacterium kansasii [1] is 16 µM (≈ 6.58 µg/mL); in [2], 4 µM (≈ 1.64 µg/mL); in the series with Mycobacterium kansasii [3], 32 µM (≈ 13.2 µg/mL); in [4], 4 µM (≈ 1.64 µg/mL); in the series with Mycobacterium kansasii [5] it was 16 µM (≈ 6.58 µg/mL); against Mycobacterium avium [6] it was 32 µM (≈ 13.2 µg/mL). Moreover, the MIC was determined as 4 µM (≈ 1.64 µg/mL) in the series on Mycobacterium kansasii [7], 4 µM (≈ 1.64 µg/mL) with Mycobacterium kansasii [8], 62 µM (≈ 25.5 µg/mL) in the series on Mycobacterium avium [9] and 32 µM (≈ 13.2 µg/mL) in the series on Mycobacterium kansasii [10]. Besides, the viability at 48 h, 30 µM in series [11] is 69%; in series [13], 22%; in series [15], 27%; in [16], 111%. Also, the IC50 in series [12] was > 30 µM; in the series on HepG2, 25 µM; in series [14], 22 µM; with HeLa, > 30 µM.

As for `COc1cccc(-n2nnnc2SCc2cc([N+](=O)[O-])cc([N+](=O)[O-])c2)c1`, the MIC came to 125 µM (≈ 48.5 µg/mL) with Mycobacterium kansasii [1]; 2 µM (≈ 0.777 µg/mL) in series [2]; 125 µM (≈ 48.5 µg/mL) against Mycobacterium kansasii [3]; 4 µM (≈ 1.55 µg/mL) in series [4]; 125 µM (≈ 48.5 µg/mL) against Mycobacterium kansasii [5]; 125 µM (≈ 48.5 µg/mL) against Mycobacterium avium [6]. The MIC against Mycobacterium kansasii [7], against Mycobacterium kansasii [8], in the series with Mycobacterium avium [9] and in the series on Mycobacterium kansasii [10] was 125 µM (≈ 48.5 µg/mL) throughout.

As to `c1ccc(C[Se]c2nnnn2C2CCCCC2)cc1`, the MIC against Mycobacterium kansasii [1] was found to be 250 µM (≈ 80.3 µg/mL); in series [2], 125 µM (≈ 40.2 µg/mL); in the series with Mycobacterium kansasii [3], 500 µM (≈ 161 µg/mL); in series [4] it was 125 µM (≈ 40.2 µg/mL); in the series on Mycobacterium kansasii [5], 32 µM (≈ 10.3 µg/mL); against Mycobacterium avium [6], 125 µM (≈ 40.2 µg/mL). Further, the minimal inhibitory concentration (MIC) with Mycobacterium kansasii [7] was 62 µM (≈ 19.9 µg/mL); against Mycobacterium kansasii [8], 8 µM (≈ 2.57 µg/mL); in the series with Mycobacterium avium [9], 125 µM (≈ 40.2 µg/mL); with Mycobacterium kansasii [10], 32 µM (≈ 10.3 µg/mL).
